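A five-concentration, 48-hour dose response in 96-well plates underlies each endpoint, interpolated linearly between surrounding concentrations. TGI marks complete inhibition of growth.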
Legend:
Experiment in all cases: growth of human tumour cells (NCI), 48 h
NCI-H226 lung = tested on: NCI-H226 lung
HL-60(TB) leukemia = tested on: HL-60(TB) leukemia
M14 melanoma = tested on: M14 melanoma
RPMI-8226 leukemia = tested on: RPMI-8226 leukemia
SF-539 CNS = tested on: SF-539 CNS
UO-31 renal = tested on: UO-31 renal
SW-620 colon = tested on: SW-620 colon
OVCAR-8 ovarian = tested on: OVCAR-8 ovarian
HOP-92 NSCLC = tested on: HOP-92 NSCLC
K-562 leukemia = tested on: K-562 leukemia
KM20L2 colon = tested on: KM20L2 colon
CAKI-1 renal = tested on: CAKI-1 renal
OVCAR-4 ovarian = tested on: OVCAR-4 ovarian
DLD-1 colon = tested on: DLD-1 colon
SNB-19 CNS = tested on: SNB-19 CNS
LOX IMVI melanoma = tested on: LOX IMVI melanoma
MDA-MB-231 breast = tested on: MDA-MB-231 breast
MDA-MB-435 = tested on: MDA-MB-435
SN12C renal = tested on: SN12C renal
BT-549 breast = tested on: BT-549 breast

SMILES	TGI (NCI-H226 lung) [µM]	TGI (HL-60(TB) leukemia) [µM]	TGI (M14 melanoma) [µM]	TGI (RPMI-8226 leukemia) [µM]	TGI (SF-539 CNS) [µM]	TGI (UO-31 renal) [µM]	TGI (SW-620 colon) [µM]	TGI (OVCAR-8 ovarian) [µM]	TGI (HOP-92 NSCLC) [µM]	TGI (K-562 leukemia) [µM]	TGI (KM20L2 colon) [µM]	TGI (CAKI-1 renal) [µM]	TGI (OVCAR-4 ovarian) [µM]	TGI (DLD-1 colon) [µM]	TGI (SNB-19 CNS) [µM]	TGI (LOX IMVI melanoma) [µM]	TGI (MDA-MB-231 breast) [µM]	TGI (MDA-MB-435) [µM]	TGI (SN12C renal) [µM]	TGI (BT-549 breast) [µM]
COC(=O)C1=C(C)N2CCOC2CC1c1ccccc1 (stereo not drawn)	> 100	> 100	> 100	> 100	> 100	> 100	> 100	> 100	> 100	> 100	> 100	> 100	> 100	> 100	> 100	–	–	–	–	–
CN1C(=O)C2C=C3CCCCC3=CC2N(C)C1=O (stereo not drawn)	> 100	> 100	> 100	> 100	> 100	> 100	> 100	> 100	> 100	> 100	–	> 100	> 100	–	> 100	> 100	> 100	> 100	> 100	> 100
Cc1ccc(S(=O)(=O)NCCCSCCSCCCN)cc1	> 100	> 100	> 100	–	–	> 100	> 100	> 100	> 100	> 100	–	–	> 100	–	> 100	> 100	> 100	> 100	> 100	–
CN(C)CCN(C(=Nc1ccccc1)N1CCCC1)c1ccccc1	> 100	> 100	> 100	82.3	–	> 100	> 100	> 100	> 100	> 100	–	> 100	> 100	–	> 100	> 100	–	> 100	> 100	> 100
CCN(CC)CCN(C(=O)c1ccc(F)cc1)c1ccccc1N	> 10	> 10	> 10	> 10	> 10	> 10	> 10	> 10	–	> 10	–	> 10	> 10	–	> 10	> 10	> 10	> 10	> 10	–
COc1cc2oc(=O)ccc2cc1CC=C(C)C	98.6	33.1	–	61	> 100	97.9	> 100	> 100	69	> 100	–	> 100	> 100	–	> 100	> 100	> 100	> 100	> 100	81
O=C(N/N=C\C(F)(F)F)c1ccncc1	> 100	> 100	> 100	> 100	–	> 100	> 100	> 100	> 100	> 100	–	> 100	> 100	–	> 100	> 100	–	> 100	> 100	> 100
Cc1ccc(S(=O)(=O)NNC2Oc3cc4c(cc3C(c3ccccc3O)C2C)OCO4)cc1 (stereo not drawn)	28.3	40.8	26.2	47.1	33.3	23	29.7	–	31.7	50.2	–	28.9	–	–	25.6	32.8	31.4	26.8	30.5	27.3
